Assay type in all cases: cell-based
One assay relates to TDP-43 splicing function. Briefly: qRT-PCR of TDP-43 sentinel transcripts (STMN2, ELAVL3, PFKP) in MG-132 challenged human motor neurons. Further details: effect of stressor on splicing changes associated with TDP-43 loss of function (qPCR): dose or concentration left out as unconfirmed. The settings on record: human motor neurons, relative to unstressed. The method, then:
Cell culture and differentiation of iPS Cells into motor neurons. Pluripotent stem cells were grown with mTeSR Plus medium on tissue culture dishes coated with Matrigel, and maintained in 5% CO2 incubators at 37° C. Stem cells were passaged as small aggregates of cells after 1 mM EDTA treatment. […] was added to the cultures for 16-24 h after dissociation to prevent cell death. The iP11NA iPS cell line was acquired from ALSTEM. This cell line was generated from pre-made footprint-free human iPS cells with DOX inducible Ngn2 that has been stably integrated into the human AAVS1 “Safe Harbor” site, and provides a convenient means to differentiate human iPS cells into neurons rapidly and efficiently. Motor neuron differentiation was achieved using a modified 5-day strategy.
This approach relies on neural induction through small molecule inhibition of SMAD signaling, accelerated neural differentiation through forced Ngn2 expression, and motor neuron patterning through the activation of retinoic acid and Sonic Hedgehog signaling pathways. In brief, pluripotent stem cells were dissociated to single cells using accutase and plated at a density of 80,000 cells per cm^2 on Matrigel-coated culture plates with mTeSR Plus medium supplemented with ROCK inhibitor (10 μM Y-27632, ATCC). When cells reached 50% confluency, medium was changed to differentiation medium BrainPhys medium supplemented with N2-A, SM1, […]. This time point was defined as day 0 (d0) of motor neuron differentiation. Treatment with small molecules was carried out as follows: 2 μg/mL Doxycyline, 10 μM SB431542, 100 nM LDN-193189, […] and 1 μM Smoothend agonist and 10 uM Edu. The full list of materials and their descriptions is included below in Table 5.
Total RNA was isolated from d14 motor neurons for qRT-PCR assays using TaqMan™ Fast Advanced Cells-to-CT™ Kit according to manufacturer's instructions. 7500 neurons per well of 96-well culture were routinely used for processing. qRT-PCR was then performed using multiplex assays from IDT using PrimeTime™ Gene Expression Master Mix (IDT) on a QuantStudio6Pro system. Quantitative levels for all genes assayed were normalized using GAPDH expression. […] Primers and probes used in this study are in Table 5.
To this end, we first examined whether proteasome inhibition, which triggers TDP-43 nuclear depletion, also leads to splicing defects associated with TDP-43 loss-of function. For comparison, we also treated human motor neurons with puromycin, which recruits TDP-43 to stress granules in the cytoplasm. We chose to analyze several transcripts that have relevant connections to ALS biology including STMN26,12, PFKP19, and ELAVL320,21. We used quantitative reverse transcription-polymerase chain reaction (qRT-PCR) to validate that in MG-132-treated motor neurons these transcripts were altered like in ALS patients.
Using this method, we next obtained RNA from independent motor neuron biological replicates after proteasome inhibition and Compound 183 treatment to determined by qRT-PCR the relative abundance of these transcripts. […] A dose-responsive effect was further tested for Compound 183 using qRT-PCR in this model. […] Collectively, the data support the notion that Compound 183 promotes TDP-43 nuclear function under proteotoxic stress.
(In general: Quantitative PCR measures a nucleic acid by following its amplification.)

In the next assay the test system is tau stress granules. Put plainly: SY5Y-tT1 tau arsenite assay (tau stress granules per cell). The settings on record: SY5Y-tT1 cells, 2 hours compound, 90 minutes arsenite, 50% reduction of granules per cell, read-out: IC50, Inhibitor Activity of Tau Stress Granules. The method, then:
Example 91: In Vitro Efficacy Assay of Exemplary Compounds—SY5Y-tT1 Tau Arsenite/Thapsigargin Assay
• Before harvesting cells—checked to see if cells are ~80% confluency in their flask • 1. Aspirated growth media from flask. • 2. Added 4 mL of (0.25%) trypsin-EDTA (REF: 25200-056) • 3. Placed in 37° C. incubator for 5 minutes. • 4. Removed from incubator and added 11 mL growth media, washing any remaining cells adhered to the bottom of the flask. • 5. Transferred cell containing media to a 50 mL conical tube and spun for 5 minutes at 800 rpm. • 6. Aspirated supernatant and added 5 mL of growth media to cell pellet, triturating to make a homogenous cell solution. • 7. After counting cells, followed one of these plating paradigms: • (A) If treating with arsenite, plated cells at […] with tetracycline solution (5 mg/mL) added to cell solution at 1:5000 • (B) If treating with thapsigargin, plated cells at 4,000 cells/well with tetracycline solution (5 mg/mL) added to cell solution at 1:5000 • 8. Incubated at 37° C. for 48 hours.
• Solubilized all compounds to 10 mM prior to making dilution plates • 1. To a 96-well U-bottom plate (Falcon Non-Tissue Culture Treated Plates REF: 351177) added 120 μL growth media to all 96 wells, with an additional 58.2 μL to row A. • 2. Added 1.8 μL of 10 mM compound stock to wells A1-11, adding 1.8 μL of 10 mM PERKi stock (Selleck Chemistry GSK2606414 Cat No. S7307) as the control. • 3. Serially diluted 60 μL from row A down through each row, finishing with 180 μL total volume in row H. • 4. Transferred 12.5 μL of each dilution plate well to the correlating wells in cell plate, being careful not to touch cells adhered to bottom of the plate. • 5. Incubated for 2 hours.
• 1. Added 720 μL of 0.05 M sodium arsenite solution (CAS #: 7784-46-5) to 10 mL of growth media for a final concentration of […] arsenite solution, mix well. • 2. Added 12.5 μL of arsenite solution to all wells of compounds treated plate intended for arsenite treatment. • 3. Incubated at 37° C. for 90 minutes.
• Before beginning this part of the protocol: • Made 1×PBS by diluting 10× stock (10×, Phosphate buffered saline, Fisher #BP399— • 4) in sterile deionized water. • Diluted paraformaldehyde (16% Paraformaldehyde solution, Electron Microscopy Sciences #15710-S) to 4% in 1×PBS. • Diluted Hoechst stain (Life Technologies #H3570) 1:10,000 in 1×PBS (1 μL Hoechst per 10 mL 1×PBS). • Both solutions were protected from light. • 1) After compound treatment, aspirated media from cell plates and gently added in 50 μL of 4% paraformaldehyde for 10 min protected from light at room temperature. • 2) Aspirated paraformaldehyde solution and gently added 50 μL of 1:10,000 Hoechst solution to each well and incubated for 10 min protected from light at room temperature. • 3) Aspirated Hoechst solution and gently added 100 μL 1×PBS. Cover the plate with aluminum film (VWR #60941-126). • 4) Stored at 4° C. or used immediately for imaging on ThermoFisher CX7 imager.
Exemplary compounds of the disclosed herein were evaluated for efficacy for inhibitor activity of tau stress granules in the arsenite assay and quantified as drug concentration providing a 50% reduction (IC50) of granules per cell is shown in Table 4.
In Table 4 below, A indicates an IC50 (μM)<0.5 μM, B indicates an IC50 (μM) 0.5 μM to <1 μM, C indicates an IC50 (μM) 1 μM to <2 μM, and D indicates an IC50 (μM) 2 μM to <6 μM.

The subject of a further assay is TDP-43 aggregation. Put plainly: TDP-43 aggregation assay in SY5Y TDP-43WT cells (high content imaging). To be noted: Homo sapiens, tetracycline induction 24 hrs, 1 hour compound pre-treatment, sodium arsenite 23 hrs, 8-point dose curve, percentage of cells with TDP-43 aggregates, read-out: IC50, Inhibition of TDP-43 Aggregation. An outline of the steps: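 Tetracycline-inducible eGFP-tagged wild-type human TDP-43 in SH-SY5Y cells, induced 24 h ([…]), compound pre-treated 1 h, then sodium arsenite […] for 23 h. Fixed cells imaged; percentage of DAPI-counted cells with aggregates gives IC50 from 8-point curves.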

Each structure is given as a SMILES string. Bounds are passed on as bounds.

Turning to `COc1ccc(C[C@H](N)C(=O)N[C@H]2[C@@H](O)[C@H](n3cnc4c(N(C)C)ncnc43)O[C@@H]2CO)cc1` [puromycin, reference compound], in the assay with TDP-43 splicing function, the “effect of stressor on splicing changes associated with TDP-43 loss of function (qPCR)” value is on record as “failed to induce transcription changes consistent with TDP-43 loss of function”.
What is called IC50 is the concentration at which inhibition is half-maximal. Take `Cc1cc(-c2ccc(C3CCN(C4CCCCC4)CC3)cc2)sc1C(=O)N1CC[C@H](N)C1` [Compound 179, (S)-(3-aminopyrrolidin-1-yl)(5-(4-(1-cyclohexylpiperidin-4-yl)phenyl)-3-methylthiophen-2-yl)methanone]: the IC50 in the assay with tau stress granules was 500 to 1000 nM; in the assay on TDP-43 aggregation, less than 500 nM.
On to `Cc1cc(-c2ccc(C3CCN(C4CCS(=O)(=O)CC4)CC3)cc2)sc1C(=O)N1CC[C@H](N)C1` [Compound 156, (S)-(3-aminopyrrolidin-1-yl)(5-(4-(1-(1,1-dioxidotetrahydro-2H-thiopyran-4-yl)piperidin-4-yl)phenyl)-3-methylthiophen-2-yl)methanone], for which the IC50 in the assay with tau stress granules and in the assay with TDP-43 aggregation was less than 500 nM throughout.
With `Cc1cc(-c2ccc(C3CCN(C4CCC4)CC3)cc2)sc1C(=O)N1CC[C@H](N)C1` [Compound 181, (S)-(3-aminopyrrolidin-1-yl)(5-(4-(1-cyclobutylpiperidin-4-yl)phenyl)-3-methylthiophen-2-yl)methanone], the results for the IC50 in the assay on tau stress granules and in the assay on TDP-43 aggregation were 500 to 1000 nM and less than 500 nM, respectively.
`COCCCN1CCC(c2ccc(-c3cc(C)c(C(=O)N4CC[C@H](N)C4)s3)cc2)CC1` [Compound 141, (S)-(3-aminopyrrolidin-1-yl)(5-(4-(1-(3-methoxypropyl)piperidin-4-yl)phenyl)-3-methylthiophen-2-yl)methanone]: the IC50 was 500 to 1000 nM with tau stress granules and less than 500 nM with TDP-43 aggregation.
With `CCN1CCN(c2ccc(-c3cc(C)c(C(=O)N4CC[C@H](N)C4)s3)cc2)CC1` [Compound 155, (S)-(3-aminopyrrolidin-1-yl)(5-(4-(4-ethylpiperazin-1-yl)phenyl)-3-methylthiophen-2-yl)methanone], the figures for the IC50 in the assay on tau stress granules and in the assay on TDP-43 aggregation were 500 to 1000 nM and less than 500 nM, respectively.
Taken in the same sequence, the figures for `CCCN1CCC(c2ccc(-c3cc(C)c(C(=O)N4CC[C@H](N)C4)s3)cc2)CC1` [Compound 182, (S)-(3-aminopyrrolidin-1-yl)(3-methyl-5-(4-(1-propylpiperidin-4-yl)phenyl)thiophen-2-yl)methanone] were less than 500 nM and less than 500 nM.
In the case of `Cc1cc(-c2ccc(C3CCN(C)CC3)cc2)sc1C(=O)N1CC[C@H](N)C1` [Compound 201, (S)-(3-aminopyrrolidin-1-yl)(3-methyl-5-(4-(1-methylpiperidin-4-yl)phenyl)thiophen-2-yl)methanone], the IC50 in the assay with tau stress granules and with TDP-43 aggregation was less than 500 nM in each case.
As for `Cc1cc(-c2ccc3c(c2)CNCC3)sc1C(=O)N1CC[C@H](N)C1` [Compound 198, (S)-(3-aminopyrrolidin-1-yl)(3-methyl-5-(1,2,3,4-tetrahydroisoquinolin-7-yl)thiophen-2-yl)methanone], the IC50 in the assay with tau stress granules was 2000 to 6000 nM; with TDP-43 aggregation, less than 500 nM.
As for `Cc1cc(-c2ccc(C(C)N(C)C)cc2)sc1C(=O)N1CC[C@H](N)C1` (stereo partly drawn) [Compound 200, ((S)-3-aminopyrrolidin-1-yl)(5-(4-(1-(dimethylamino)ethyl)phenyl)-3-methylthiophen-2-yl)methanone], the IC50 was 2000 to 6000 nM with tau stress granules and less than 500 nM with TDP-43 aggregation.
As for `Cc1cc(-c2ccc3c(c2)CCNC3)sc1C(=O)N1CC[C@H](N)C1` [Compound 199, (S)-(3-aminopyrrolidin-1-yl)(3-methyl-5-(1,2,3,4-tetrahydroisoquinolin-6-yl)thiophen-2-yl)methanone], the results for the IC50 with tau stress granules and with TDP-43 aggregation were 2000 to 6000 nM and less than 500 nM, respectively.
For `Cc1cc(-c2ccc(C3CCN(C)CC3)c(F)c2)sc1C(=O)N1CC[C@H](N)C1` [Compound 136, (S)-(3-aminopyrrolidin-1-yl)(5-(3-fluoro-4-(1-methylpiperidin-4-yl)phenyl)-3-methylthiophen-2-yl)methanone] the same measures were less than 500 nM and less than 500 nM.
In the case of `Cc1cc(-c2ccc(C3CCN(CC4CCCOC4)CC3)cc2)sc1C(=O)N1CC[C@H](N)C1` (stereo partly drawn) [Compound 139, ((S)-3-aminopyrrolidin-1-yl)(3-methyl-5-(4-(1-((tetrahydro-2H-pyran-3-yl)methyl)piperidin-4-yl)phenyl)thiophen-2-yl)methanone], the figures for the IC50 with tau stress granules and in the assay on TDP-43 aggregation were 500 to 1000 nM and less than 500 nM, respectively.

The record behind these values is patent US20260258025A1, “INHIBITORS OF TDP-43 AND TAU AGGREGATION” (Aquinnah Pharmaceuticals, inc., priority 2023, published 2026).
